# Experimental data: patent publication US20050026949A1, “Methods of therapeutic treatment using amounts of retinoids without regard to body weight” (Allergan, Inc., priority 2003, published 2005)
# How the values were obtained:
# [1] = tested on: patients with moderate to very severe plaque psoriasis; assay: Open-label extension study of oral tazarotene (Example 4); assay type: in vivo, human; settings: 4.5 mg once daily, 12-week extension treatment period, both groups
# [2] = tested on: patients having nodulocystic acne; assay: Two placebo-controlled dose-ranging safety studies of oral tazarotene (Example 5); assay type: in vivo, human; settings: for incidence of joint disorder: placebo 0%; for incidence of arthralgia: placebo 6%; for incidence of myalgia: placebo 9%; for incidence of asthenia: placebo 13%; for incidence of dry skin: placebo 19%; for incidence of headache: placebo 28%; for incidence of cheilitis: placebo 31%; for depression: placebo 1 (2%); for emotional lability (all cases mild): placebo 2 (4%)
# Experimental: Two placebo-controlled dose-ranging studies are conducted to evaluate the safety of oral tazarotene in patients having nodulocystic acne. In the first study, patients receive orally administered tazarotene at daily doses of 0.4 mg to 2.8 mg in 96 (71+25) patients (12 weeks treatment plus 12 weeks post-treatment). In the second study, daily doses of 0.75 mg to 6 mg tazarotene are administered to 181 patients (24 weeks treatment plus 12 weeks post-treatment).
smiles,measurement,setting,value
CCOC(=O)c1ccc(C#Cc2ccc3c(c2)C(C)(C)CCS3)nc1 [tazarotene],incidence of asthenia,[1],6%
same,incidence of back pain,[1],11%
same,incidence of headache,[1],11%
same,incidence of infection,[1],10%
same,incidence of myalgia,[1],15%
same,"changes in urinalysis, chemistry, or hematology measures (including liver function tests, triglycerides, total cholesterol, HDL cholesterol)",[2]; 0.4 mg to 6 mg daily,no consistent dose-related clinically significant changes
same,"ligament calcification, osteophyte formation, or changes in serum bone alkaline phosphatase, serum amino terminal telopeptides, or bone density",[2]; 0.4 mg to 6 mg daily,not associated with any clinically significant
same,patients withdrawing due to adverse events,[2]; 0.75 mg,2 patients
same,incidence of joint disorder,"[2]; 2.8 mg, n=11",27%
same,incidence of arthralgia,"[2]; 2.8 mg, n=11",9%
same,incidence of myalgia,"[2]; 2.8 mg, n=11",0%
same,incidence of asthenia,"[2]; 2.8 mg, n=11",0%
same,incidence of dry skin,"[2]; 2.8 mg, n=11",18%
same,incidence of headache,"[2]; 2.8 mg, n=11",9%
same,incidence of cheilitis,"[2]; 2.8 mg, n=11",64%
same,patients withdrawing due to adverse events,[2]; 3 mg,2 patients
same,"cheilitis, mild",[2]; 3 mg group,25 patients
same,"cheilitis, moderate",[2]; 3 mg group,3 patients
same,"cheilitis, severe",[2]; 3 mg group,1 patient
same,"dry skin, mild",[2]; 3 mg group,11 patients
same,"dry skin, moderate",[2]; 3 mg group,2 patient
same,depression,"[2]; 3 mg group (2 mild, 1 severe)",3 (8%) patients (%)
same,emotional lability (all cases mild),[2]; 3 mg group,1 (3%) patient (%)
same,incidence of joint disorder,"[2]; 3 mg, n=37",14%
same,incidence of arthralgia,"[2]; 3 mg, n=37",8%
same,incidence of myalgia,"[2]; 3 mg, n=37",16%
same,incidence of asthenia,"[2]; 3 mg, n=37",19%
same,incidence of dry skin,"[2]; 3 mg, n=37",35%
same,incidence of headache,"[2]; 3 mg, n=37",19%
same,incidence of cheilitis,"[2]; 3 mg, n=37",78%
same,patients withdrawing due to adverse events,[2]; 6 mg,1 patients
same,"cheilitis, mild",[2]; 6 mg group,27 patients
same,"cheilitis, moderate",[2]; 6 mg group,6 patients
same,"cheilitis, severe",[2]; 6 mg group,1 patient
same,"dry skin, mild",[2]; 6 mg group,17 patients
same,"dry skin, moderate",[2]; 6 mg group,1 patient
same,depression,[2]; 6 mg group,none
same,emotional lability (all cases mild),[2]; 6 mg group,5 (14%) patient (%)
same,incidence of joint disorder,"[2]; 6 mg, n=36",19%
same,incidence of arthralgia,"[2]; 6 mg, n=36",28%
same,incidence of myalgia,"[2]; 6 mg, n=36",25%
same,incidence of asthenia,"[2]; 6 mg, n=36",19%
same,incidence of dry skin,"[2]; 6 mg, n=36",50%
same,incidence of headache,"[2]; 6 mg, n=36",36%
same,incidence of cheilitis,"[2]; 6 mg, n=36",94%
same,patients withdrawing from either study due to adverse events,"[2]; 7/277, all groups incl. placebo",2.5%
same,"dry skin, severe",[2]; all groups,No patient has severe dry skin
